ChEMBL document CHEMBL4346717, “1,2,4-Triazole-quinoline/quinolone hybrids as potential anti-bacterial agents” (Eur J Med Chem, 2019)
Converted amounts (≈) assume the structure as drawn.

How the values were obtained:
Type in all cases: functional
[1] = system: Mycolicibacterium phlei; experiment: Antibacterial activity against Mycobacterium phlei clinical isolate after 3 to 7 days by cup diffusion method
[2] = system: Pseudomonas aeruginosa; experiment: Antibacterial activity against Pseudomonas aeruginosa assessed as zone of inhibition at 10 mg/ml after 3 to 7 days by cup diffusion method; conditions: read-out: IZ
[3] = system: Mycolicibacterium phlei; experiment: Antibacterial activity against Mycobacterium phlei clinical isolate assessed as zone of inhibition at 10 mg/ml after 3 to 7 days by cup diffusion method; conditions: read-out: IZ
[4] = system: Aggregatibacter actinomycetemcomitans; experiment: Antibacterial activity against Aggregatibacter actinomycetemcomitans ATCC 29524 assessed as zone of inhibition at 10 mg/ml after 3 to 7 days by cup diffusion method; conditions: read-out: IZ
[5] = system: Staphylococcus aureus; experiment: Antibacterial activity against Staphylococcus aureus after 3 to 7 days by cup diffusion method
[6] = system: Escherichia coli; experiment: Antibacterial activity against Escherichia coli assessed as zone of inhibition at 10 mg/ml after 3 to 7 days by cup diffusion method; conditions: read-out: IZ
[7] = system: Pseudomonas aeruginosa; experiment: Antibacterial activity against Pseudomonas aeruginosa after 3 to 7 days by cup diffusion method
[8] = system: Bacillus subtilis; experiment: Antibacterial activity against Bacillus subtilis assessed as zone of inhibition at 10 mg/ml after 3 to 7 days by cup diffusion method; conditions: read-out: IZ
[9] = system: Staphylococcus aureus; experiment: Antibacterial activity against Staphylococcus aureus assessed as zone of inhibition at 10 mg/ml after 3 to 7 days by cup diffusion method; conditions: read-out: IZ
[10] = system: Aggregatibacter actinomycetemcomitans; experiment: Antibacterial activity against Aggregatibacter actinomycetemcomitans ATCC 29524 after 3 to 7 days by cup diffusion method
[11] = system: Escherichia coli; experiment: Antibacterial activity against Escherichia coli after 3 to 7 days by cup diffusion method
[12] = system: Bacillus subtilis; experiment: Antibacterial activity against Bacillus subtilis after 3 to 7 days by cup diffusion method
[13] = system: Pseudomonas aeruginosa; experiment: Antibacterial activity against Pseudomonas aeruginosa
[14] = system: Escherichia coli; experiment: Antibacterial activity against Escherichia coli
[15] = system: Staphylococcus aureus; experiment: Antibacterial activity against Staphylococcus aureus
[16] = Mycolicibacterium phlei, read-out: MIC
[17] = Staphylococcus aureus, read-out: MIC
[18] = Pseudomonas aeruginosa, read-out: MIC
[19] = Aggregatibacter actinomycetemcomitans, ATCC 29524, read-out: MIC
[20] = Escherichia coli, read-out: MIC
[21] = Bacillus subtilis, read-out: MIC

Structure (SMILES)	MIC [1, 16]	zone of inhibition at 10000 µg/mL [2]	zone of inhibition at 10000 µg/mL [3]	zone of inhibition at 10000 µg/mL [4]	MIC [5, 17]	zone of inhibition at 10000 µg/mL [6]	MIC [7, 18]	zone of inhibition at 10000 µg/mL [8]	zone of inhibition at 10000 µg/mL [9]	MIC [10, 19]	MIC [11, 20]	MIC [12, 21]	MIC [1]	MIC [5]	MIC [7]	MIC [10]	MIC [11]	MIC [12]	further results
CCn1cc(-c2nc(NC(=O)CCl)n[nH]2)c(=O)c2cc(Br)c(C)nc21	3.68 to 6.3 µM (≈ 1.57 to 2.68 µg/mL)	20 to 40 mm	20 to 40 mm	20 to 40 mm	3.68 to 6.3 µM (≈ 1.57 to 2.68 µg/mL)	20 to 40 mm	3.68 to 6.3 µM (≈ 1.57 to 2.68 µg/mL)	20 to 40 mm	20 to 40 mm	3.68 to 6.3 µM (≈ 1.57 to 2.68 µg/mL)	3.68 to 6.3 µM (≈ 1.57 to 2.68 µg/mL)	3.68 to 6.3 µM (≈ 1.57 to 2.68 µg/mL)							
CCn1cc(-c2nc(/N=C/c3ccc(OC)cc3)n[nH]2)c(=O)c2ccc(C)nc21		20 to 40 mm	20 to 40 mm	20 to 40 mm		20 to 40 mm		20 to 40 mm	20 to 40 mm				>=0.031 - 32 ug ml-1	>=0.031 - 32 ug ml-1	>=0.031 - 32 ug ml-1	>=0.031 - 32 ug ml-1	>=0.031 - 32 ug ml-1	>=0.031 - 32 ug ml-1	
CCn1cc(-c2nc(NC(=O)c3ccc(Cl)cc3)n[nH]2)c(=O)c2ccc(C)nc21		20 to 40 mm	20 to 40 mm	20 to 40 mm		20 to 40 mm		20 to 40 mm	20 to 40 mm				>=0.031 - 32 ug ml-1	>=0.031 - 32 ug ml-1	>=0.031 - 32 ug ml-1	>=0.031 - 32 ug ml-1	>=0.031 - 32 ug ml-1	>=0.031 - 32 ug ml-1	
Nn1c(S)nnc1Cn1c(=O)cc(-c2ccccc2)c2cccc(Cl)c21																			MIC [13]: 8 to 256 µg/mL (≈ 20.8 to 667 µM); MIC [14]: 8 to 256 µg/mL (≈ 20.8 to 667 µM); MIC [15]: 8 to 256 µg/mL (≈ 20.8 to 667 µM)
CCn1cc(-c2nc(/N=C/c3ccc(Cl)cc3)n[nH]2)c(=O)c2ccc(C)nc21		20 to 40 mm	20 to 40 mm	20 to 40 mm		20 to 40 mm		20 to 40 mm	20 to 40 mm				>=0.031 - 32 ug ml-1	>=0.031 - 32 ug ml-1	>=0.031 - 32 ug ml-1	>=0.031 - 32 ug ml-1	>=0.031 - 32 ug ml-1	>=0.031 - 32 ug ml-1	
CCn1cc(-c2nc(/N=C/c3ccc(Cl)cc3)n[nH]2)c(=O)c2cc(Br)c(C)nc21	3.68 to 6.3 µM (≈ 1.74 to 2.97 µg/mL)	20 to 40 mm	20 to 40 mm	20 to 40 mm	3.68 to 6.3 µM (≈ 1.74 to 2.97 µg/mL)	20 to 40 mm	3.68 to 6.3 µM (≈ 1.74 to 2.97 µg/mL)	20 to 40 mm	20 to 40 mm	3.68 to 6.3 µM (≈ 1.74 to 2.97 µg/mL)	3.68 to 6.3 µM (≈ 1.74 to 2.97 µg/mL)	3.68 to 6.3 µM (≈ 1.74 to 2.97 µg/mL)							
CCn1cc(-c2nc(NC(=O)c3ccccc3)n[nH]2)c(=O)c2ccc(C)nc21		20 to 40 mm	20 to 40 mm	20 to 40 mm		20 to 40 mm		20 to 40 mm	20 to 40 mm				>=0.031 - 32 ug ml-1	>=0.031 - 32 ug ml-1	>=0.031 - 32 ug ml-1	>=0.031 - 32 ug ml-1	>=0.031 - 32 ug ml-1	>=0.031 - 32 ug ml-1	
CCn1cc(-c2nc(NC(=O)c3ccc(OC)cc3)n[nH]2)c(=O)c2cc(Br)c(C)nc21	3.68 to 6.3 µM (≈ 1.78 to 3.04 µg/mL)	20 to 40 mm	20 to 40 mm	20 to 40 mm	3.68 to 6.3 µM (≈ 1.78 to 3.04 µg/mL)	20 to 40 mm	3.68 to 6.3 µM (≈ 1.78 to 3.04 µg/mL)	20 to 40 mm	20 to 40 mm	3.68 to 6.3 µM (≈ 1.78 to 3.04 µg/mL)	3.68 to 6.3 µM (≈ 1.78 to 3.04 µg/mL)	3.68 to 6.3 µM (≈ 1.78 to 3.04 µg/mL)							
CCn1cc(-c2nc(/N=C/c3ccc(Br)cc3)n[nH]2)c(=O)c2cc(Br)c(C)nc21	3.68 to 6.3 µM (≈ 1.9 to 3.25 µg/mL)	20 to 40 mm	20 to 40 mm	20 to 40 mm	3.68 to 6.3 µM (≈ 1.9 to 3.25 µg/mL)	20 to 40 mm	3.68 to 6.3 µM (≈ 1.9 to 3.25 µg/mL)	20 to 40 mm	20 to 40 mm	3.68 to 6.3 µM (≈ 1.9 to 3.25 µg/mL)	3.68 to 6.3 µM (≈ 1.9 to 3.25 µg/mL)	3.68 to 6.3 µM (≈ 1.9 to 3.25 µg/mL)							
CCn1cc(-c2nc(/N=C/c3ccccc3)n[nH]2)c(=O)c2cc(Br)c(C)nc21	3.68 to 6.3 µM (≈ 1.61 to 2.75 µg/mL)	20 to 40 mm	20 to 40 mm	20 to 40 mm	3.68 to 6.3 µM (≈ 1.61 to 2.75 µg/mL)	20 to 40 mm	3.68 to 6.3 µM (≈ 1.61 to 2.75 µg/mL)	20 to 40 mm	20 to 40 mm	3.68 to 6.3 µM (≈ 1.61 to 2.75 µg/mL)	3.68 to 6.3 µM (≈ 1.61 to 2.75 µg/mL)	3.68 to 6.3 µM (≈ 1.61 to 2.75 µg/mL)							
CCn1cc(-c2nc(/N=C/c3ccc(Cl)cc3Cl)n[nH]2)c(=O)c2cc(Br)c(C)nc21	3.68 to 6.3 µM (≈ 1.86 to 3.19 µg/mL)	20 to 40 mm	20 to 40 mm	20 to 40 mm	3.68 to 6.3 µM (≈ 1.86 to 3.19 µg/mL)	20 to 40 mm	3.68 to 6.3 µM (≈ 1.86 to 3.19 µg/mL)	20 to 40 mm	20 to 40 mm	3.68 to 6.3 µM (≈ 1.86 to 3.19 µg/mL)	3.68 to 6.3 µM (≈ 1.86 to 3.19 µg/mL)	3.68 to 6.3 µM (≈ 1.86 to 3.19 µg/mL)							
